# Experimental data: patent publication US8435992B2, “Multiple myeloma treatments” (Pharma Mar S.A., priority 2008, dated 2013)
# What was measured:
# [1] = tested on: BMSCs derived from a MM patient; assay: MTT cytotoxicity on BMSCs; format: cell-based, human; conditions: 48 hours
# Description: (§1) FIG. 3. PM00104 overcomes the protective effects of IL-6, IGF-I, and adherence to patient BMSCs. MM1S cells were treated for 48 hours with indicated concentrations of PM00104 in the presence or absence of IL-6 (FIG. 3A), IGF-I (FIG. 3B), or BMSCs derived from a MM patient (FIG. 3C). DNA synthesis was determined by measuring BrdU incorporation during the last 8 hours of 48-hour cultures. Additionally, BMSCs were cultured with different doses of PM00104 for 48 hours and the cytotoxicity was analyzed by MTT assay (FIG. 3D). Data is presented as the mean±SD of quadruplicates.
# [2] = tested on: myelomatous plasma cells from bone marrow samples of MM patients; assay: Ex vivo apoptosis (Annexin V) in bone marrow cells from MM patients; format: cell-based, human; conditions: 1-50 nM, 18 hours
# Description: FIG. 2. Freshly isolated bone marrow cells obtained from six MM patients were treated ex vivo with PM00104 (1-50 nM) for 18 hours. After the incubation period, cells were stained with the combination of Annexin V-FITC, and three monoclonal antibodies against plasma cell surface antigens (CD38, CD56 and CD45) which allow the analysis of the induction of apoptosis in the myelomatous population. Results are given as the percentage of Annexin V positive cells related to the percentage of viable cells in the untreated sample.
# Additionally, the effect of PM00104 was further investigated ex vivo in cells isolated from bone marrow (BM) samples obtained from six patients with MM. Samples were lysed with ammonium chloride in order to remove red blood cells, and white cells were maintained in RPMI-1640 containing antibiotics (penicillin 100 U/ml, streptomycin 100 μg/ml) and 20% FBS. […] A total of 50,000 cells were acquired on a FACScalibur flow cytometer (BD Biosciences) and analyzed with the “Paint-a-Gate” program. Apoptosis was analyzed based on the Annexin-V positivity in the different populations: tumour PCs as well as in normal residual lymphocytes and granulo-monocytes. The percentage of Annexin V positive cells after treatment with PM00104 was calculated over the Annexin V negative cells (viable cells) in the control samples (without treatment).
# [3] = Systemic toxicity and body weight in xenografted mice; format: in vivo
# Description: (§2) The in vivo efficacy of PM00104 was studied in a model of human plasmocytoma xenografted in CB17-SCID mice. These experiments were performed using the very sensitive cell line MM1S and the less sensitive one OPM-1. Two cohorts of thirty mice were subcutaneously injected with each cell line and mice were randomized into three groups receiving vehicle alone, 0.8 mg/kg of PM00104, or 1 mg/Kg PM00104 intravenously (iv) once weekly for three doses.
# (§3) CB17-SCID mice (The Jackson Laboratory, Bar Harbor, Me., USA) were subcutaneously inoculated into the right flank with 3×10^6 MM1S or OPM1 cells in 100 μL of RPMI-1640 medium and 100 μL of Matrigel (Becton Dickinson). When tumours became palpable, mice received PM00104 or vehicle alone. Treatment with PM00104 was given iv, at doses of 0.8 mg/kg and 1 mg/kg once weekly for three doses. The control group received the vehicle alone (sterile water for injection plus saline).
# MM1S cells [4] = assay: Combination with antimyeloma agents, MTT assay, Chou Talalay combination index; format: cell-based, human; conditions: 72 hours; for combination index (CI): Chou and Talalay method
# Description: FIG. 5. PM00104 potentiates the antimyeloma action of conventional and novel antimyeloma agents. MM1S cells were treated with suboptimal concentrations of PM00104 (Zalypsis, Z) and other antimyeloma agents such as Dexamethasone (Dex), melphalan (Mel), doxorubicin (Dox), bortezomib (Bort) and lenalidomide (Len) in double (FIG. 5A) and triple combinations (FIG. 5B). Cell viability was analyzed by MTT assay.
# MM1S cells were treated for 72 hours, as described in example 1, with combinations of suboptimal doses of PM00104 and other antimyeloma agents such as dexamethasone, melphalan, doxorubicin, bortezomib and lenalidomide, in double and triple combinations. Cell viability was analyzed by MTT assay as described in example 1. The potency of the combination was quantified with the Calcusyn software (Biosoft, Ferguson, Mo.), which is based in the Chou Talalay method, that calculates a combination index (CI) with the following interpretation: CI>1: antagonistic effect, CI=1: additivity and CI<1 synergistic effect.
# OPM-1 plasmocytomas = assay: Human plasmocytoma xenograft in CB17-SCID mice (OPM-1); format: in vivo; conditions: for tumor volume (mean±SD): after 14 days of treatment
# Description: as §2, §3
# (§4) Caliper measurements of the tumour diameters were performed every day, and the tumour volume was estimated as the volume of an ellipse using the following formula: V=4/3π×(a/2)×(b/2)^2, where “a” and “b” correspond to the longest and shortest diameter, respectively. Animals were euthanized when their tumours reached 2 cm. Differences in tumour volumes between treated and control groups were evaluated using 1-way analysis of variance and Bonferroni post hoc tests. Survival was estimated from the day of initiation of treatment, and statistical differences were assessed by Kaplan-Meier curves with the Log Rank test. Statistical analyses were performed with the SPSS-15.0 software (SPSS Inc. Chicago, Ill., USA) and statistical significance was defined as p<0.05.
# MM1S cells [5] = assay: BrdU uptake of MM1S cells with IL-6, IGF-I or co-cultured BMSCs; format: cell-based, human; conditions: 48 hours
# Description: as §1
# The presence of the BM microenvironment confers protection to MM through their adhesion or through the production of several cytokines such as IL-6 or IGF-I. In order to test whether PM00104 was able to inhibit this protective effect of the BM microenvironment, MM1S cells were incubated with IL-6 (1 nM) or IGF-I (10 nM), or co-cultured with BM stromal cells (BMSCs) for 48 hours, and then treated with increasing concentrations of PM00104. BMSCs were plated in 96-well culture dishes (50,000 cells/well) and allowed to reach confluence during 48 hours. Then, 30,000 myeloma cells were plated in RPMI 1640 containing 10% serum. Proliferation of MM cells was then assessed by Bromodeoxyuridine (BrdU) uptake (Maiso P et al. Br. J. Haematol. 2008, 141, 470-482). BrdU was added for the last 8 hours, and BrdU uptake was measured using a commercial kit (Roche Biochemicals), following the manufacturer's instructions.
# MM1S = assay: MTT viability assay, MM cell line panel; format: cell-based, human
# Description: (§5) Antitumor activity of PM00104 in MM was evaluated by using a cell line panel comprising the following 9 MM cell lines: MM1S, MM1R, MM144, RPMI8226, RPMI-LR5, U266, U266-LR7, OPM-1, and OPM-2. These cell lines were grown in RPMI 1640 medium with L-glutamine supplemented with antibiotics (penicillin at 100 U/mL, streptomycin at 100 μg/mL) and 10% fetal bovine serum (FBS) at 37° C. in a humidified atmosphere in the presence of 5% CO2-95% air.
# (§6) Cell lines were treated with increasing concentrations of the PM00104 (0.1-50 nM) for 24, 48 and 72 hours, and viability was analyzed by using 3-(4,5-dimethylthiazol-2-yl)-2,5-diphenyltetrazolium bromide (MTT) colorimetric assay. Briefly, MM cell lines were seeded at a density of 50,000 cells/200 […] medium per well in 48-well plates, and treated with a determined drug dose and time. Two hours before the end of the treatment, a MTT solution (5 mg/mL) in PBS) was added and the tetrazolium salt was reduced by metabolically active cells to coloured formazan crystals. After solubilization of these crystals by overnight incubation with 10% SDS-HCl solution, absorbance was measured at 570 nm with correction at 630 nm. Results are presented as the mean±SD of quadruplicates of an experiment that was repeated at least twice.
# OPM-2 = assay: MTT viability assay, MM cell line panel; format: cell-based; conditions: Homo sapiens; OPM-2, MTT, 48 hours
# Description: as §5, §6
# U266 = assay: MTT viability assay, MM cell line panel; format: cell-based; conditions: Homo sapiens, U-266, 48 hours
# Description: as §5, §6
# MM1R = assay: MTT viability assay, MM cell line panel; format: cell-based
# Description: as §5, §6
# RPMI-LR5 = assay: MTT viability assay, MM cell line panel; format: cell-based; conditions: RPMI-LR5 (melphalan resistant), 48 hours
# Description: as §5, §6
# U266-LR7 = assay: MTT viability assay, MM cell line panel; format: cell-based; conditions: U266-LR7 (melphalan resistant), 48 hours
# Description: as §5, §6
# MM144 = assay: MTT viability assay, MM cell line panel; format: cell-based
# Description: as §5, §6
# OPM-1 = assay: MTT viability assay, MM cell line panel; format: cell-based; conditions: Homo sapiens; OPM-1, MTT, 48 hours
# Description: as §5, §6
# RPMI8226 = assay: MTT viability assay, MM cell line panel; format: cell-based; conditions: Homo sapiens, RPMI-8226, 48 hours
# Description: as §5, §6
# MM1S plasmocytomas = assay: Human plasmocytoma xenograft in CB17-SCID mice (MM1S); format: in vivo; conditions: for tumor volume (mean±SD): after 15 days of treatment
# Description: as §2, §3, §4
# [6] = OPM-1, 0.8 mg/kg iv once weekly for three doses
# [7] = OPM-1, 1 mg/kg iv once weekly for three doses
# [8] = 0.8 mg/kg iv once weekly for three doses
# [9] = 1 mg/kg iv once weekly for three doses
smiles,measurement,setting,value
COc1c(C)cc2c(c1O)[C@@H]1[C@@H]3Cc4c(OC(C)=O)c(C)c5c(c4[C@H](CNC(=O)/C=C/c4cccc(C(F)(F)F)c4)N3[C@@H](O)[C@H](C2)N1C)OCO5 [PM00104],cytotoxic effect on BMSCs,[1],very resistant
same,sensitivity of patient samples (Annexin V positive cells),"[2]; four out of six samples (patients 1, 6, 3 and 5)",very sensitive to low concentrations
same,sensitivity of patient samples (Annexin V positive cells),"[2]; patient 4, secondary plasma cell leukemia",intermediate sensitivity
same,systemic toxicity,[3]; 0.8 and 1 mg/kg iv once weekly for three doses,no significant systemic toxicity
same,weight loss (of body weight as compared to the controls),[3]; highest of PM00104 doses,around 10%
same,effect of combination on cell viability,MM1S cells [4]; with bortezomib,promising additive/synergistic results
same,efficacy of triple combination vs respective double combinations,MM1S cells [4]; with dexamethasone + doxorubicin,significantly improved the efficacy
same,efficacy of triple combination vs respective double combinations,MM1S cells [4]; with dexamethasone + lenalidomide,significantly improved the efficacy
same,efficacy of triple combination vs respective double combinations,MM1S cells [4]; with dexamethasone + melphalan,significantly improved the efficacy
same,combination index (CI),MM1S cells [4]; with dexamethasone,0.78
same,combination index (CI),MM1S cells [4]; with doxorubicin,0.64
same,combination index (CI),MM1S cells [4]; with lenalidomide,0.55
same,combination index (CI),MM1S cells [4]; with melphalan,0.48
same,median±SE survival,OPM-1 plasmocytomas; [6],21 ± 0.8 days
same,tumor volume (mean±SD),OPM-1 plasmocytomas; [6],1879±731 mm^3
same,median±SE survival,OPM-1 plasmocytomas; [7],23 ± 1.1 days
same,tumor volume (mean±SD),OPM-1 plasmocytomas; [7],1042±596 mm^3
same,effect on protective effect due to adhesion of plasma cells to BMSCs (BrdU uptake),MM1S cells [5]; MM1S co-cultured with BMSCs,largely inhibited
same,effect on proliferative advantage conferred by IGF-I (BrdU uptake),"MM1S cells [5]; MM1S, IGF-I 10 nM",completely abrogated
same,effect on proliferative advantage conferred by IL-6 (BrdU uptake),"MM1S cells [5]; MM1S, IL-6 1 nM",completely abrogated
same,IC50 at 48 hours,MM1S,picomolar concentrations
same,IC50,OPM-2,1 to 2 nM
same,IC50,U266,1 to 2 nM
same,IC50 at 48 hours,MM1R,picomolar concentrations
same,IC50,RPMI-LR5,1 to 2 nM
same,IC50,U266-LR7,1 to 2 nM
same,IC50 at 48 hours,MM144,picomolar concentrations
same,IC50,OPM-1,1 to 2 nM
same,IC50,RPMI8226,1 to 2 nM
same,median±SE survival,MM1S plasmocytomas; [8],52 ± 4.8 days
same,tumor volume (mean±SD),MM1S plasmocytomas; [8],420±242 mm^3
same,median±SE survival,MM1S plasmocytomas; [9],59 ± 5.5 days
same,tumor volume (mean±SD),MM1S plasmocytomas; [9],176±78 mm^3
